# Measured values published in ChEMBL document CHEMBL5550154, “Novel biaryloxazolidinone derivatives with broad-spectrum antibacterial activity, favorable drug-like profiles and in vivo efficacy against linezolid-resistant Staphylococcusaureus” (Eur J Med Chem, 2024).
# Assays:
# [1] = Microsomal stability in rat liver microsomes assessed as elimination half life pretreated with compound upto 60 mins followed by NADPH addition and measured after 60 mins by LC/MS analysis; format: ADME, Microsome; details: for half-life: liver microsomes, read-out: beta t1/2
# [2] = system: Staphylococcus aureus; assay: Antibacterial activity against Staphylococcus aureus ATCC29213 assessed as inhibition of bacterial growth incubated for 16 to 20 hrs by CLSI based broth liquid microdilution method; format: functional; details: time 16-20 hrs
# [3] = Microsomal stability in monkey liver microsomes assessed as parent compound remaining pretreated with compound upto 60 mins followed by NADPH addition and measured after 60 mins by LC/MS analysis; format: ADME, Macaca mulatta, Microsome; details: rhesus monkey, time < 120 min, read-out: Stability
# [4] = Aqueous solubility of compound at pH 2 by LC-MS/MS analysis; format: physicochemical; details: buffer
# [5] = Microsomal stability in mouse liver microsomes assessed as elimination half life pretreated with compound upto 60 mins followed by NADPH addition and measured after 60 mins by LC/MS analysis; format: ADME, Microsome; details: time < 120 min; for half-life: liver microsomes, read-out: beta t1/2
# [6] = Volume of distribution at steady state in ICR mouse at 1 mg/kg, iv measured upto 24 hrs by LC-MS analysis; format: ADME, organism-based; details: in vivo, read-out: Vdss
# [7] = Microsomal stability in human liver microsomes assessed as elimination half life pretreated with compound upto 60 mins followed by NADPH addition and measured after 60 mins by LC/MS analysis; format: ADME, Microsome; details: time < 120 min; for half-life: liver microsomes, read-out: beta t1/2
# [8] = system: Staphylococcus aureus; assay: Antibacterial activity against methicillin-resistant Staphylococcus aureus assessed as inhibition of bacterial growth incubated for 16 to 20 hrs by CLSI based broth liquid microdilution method; format: functional; details: time 16-20 hrs
# [9] = Plasma protein binding in mouse incubated for 6 hrs by LC-MS/MS analysis; format: ADME, cell-free; details: read-out: PPB (converted)
# [10] = Tmax in ICR mouse at 10 mg/kg, IG measured upto 24 hrs by LC-MS analysis; format: ADME, organism-based; details: in vivo, po
# [11] = AUC (0 to t) in ICR mouse at 10 mg/kg, IG measured upto 24 hrs by LC-MS analysis; format: ADME, organism-based; details: in vivo, po
# [12] = Stability in dog plasma assessed as parent compound remaining at 37 degreeC measured upto 60 mins by HPLC analysis; format: ADME, cell-free, Canis lupus familiaris; details: read-out: Stability
# [13] = Microsomal stability in dog liver microsomes assessed as intrinsic clearance pretreated with compound upto 60 mins followed by NADPH addition and measured after 60 mins by LC/MS analysis; format: ADME, Canis lupus familiaris, Microsome; details: time < 120 min; for microsomal CLint: liver microsomes, read-out: CLH
# [14] = AUC (0 to t) in Sprague-Dawley rat at 1 mg/kg, iv measured upto 24 hrs by LC-MS analysis; format: ADME, organism-based; details: in vivo
# [15] = Elimination half life in Sprague-Dawley rat at 1 mg/kg, iv measured upto 24 hrs by LC-MS analysis; format: ADME, organism-based; details: in vivo, read-out: beta t1/2 (converted)
# [16] = Microsomal stability in human liver microsomes assessed as intrinsic clearance pretreated with compound upto 60 mins followed by NADPH addition and measured after 60 mins by LC/MS analysis; format: ADME, Microsome; details: time < 120 min, read-out: CLH
# [17] = system: Staphylococcus aureus; assay: Antibacterial activity against methicillin-sensitive Staphylococcus aureus assessed as inhibition of bacterial growth incubated for 16 to 20 hrs by CLSI based broth liquid microdilution method; format: functional; details: time 16-20 hrs
# [18] = Microsomal stability in mouse liver microsomes assessed as parent compound remaining pretreated with compound upto 60 mins followed by NADPH addition and measured after 60 mins by LC/MS analysis; format: ADME, Microsome; details: time < 120 min; for remaining at 2 h: liver microsomes, read-out: Stability
# [19] = Microsomal stability in monkey liver microsomes assessed as intrinsic clearance pretreated with compound upto 60 mins followed by NADPH addition and measured after 60 mins by LC/MS analysis; format: ADME, Macaca mulatta, Microsome; details: rhesus monkey, time < 120 min, read-out: CLH
# [20] = target: T1, Cytochrome P450 1A2 (Homo sapiens, UniProt P05177); assay: Inhibition of CYP1A2 in human liver microsomes with alpha-naphthoflavone as reference inhibitor preincubated with compound for 5 mins followed by substrate addition and measured after 120 mins in presence of NADPH by LC-MS/MS analysis; format: ADME, Microsome
# T1 sequence (P05177 whole entry): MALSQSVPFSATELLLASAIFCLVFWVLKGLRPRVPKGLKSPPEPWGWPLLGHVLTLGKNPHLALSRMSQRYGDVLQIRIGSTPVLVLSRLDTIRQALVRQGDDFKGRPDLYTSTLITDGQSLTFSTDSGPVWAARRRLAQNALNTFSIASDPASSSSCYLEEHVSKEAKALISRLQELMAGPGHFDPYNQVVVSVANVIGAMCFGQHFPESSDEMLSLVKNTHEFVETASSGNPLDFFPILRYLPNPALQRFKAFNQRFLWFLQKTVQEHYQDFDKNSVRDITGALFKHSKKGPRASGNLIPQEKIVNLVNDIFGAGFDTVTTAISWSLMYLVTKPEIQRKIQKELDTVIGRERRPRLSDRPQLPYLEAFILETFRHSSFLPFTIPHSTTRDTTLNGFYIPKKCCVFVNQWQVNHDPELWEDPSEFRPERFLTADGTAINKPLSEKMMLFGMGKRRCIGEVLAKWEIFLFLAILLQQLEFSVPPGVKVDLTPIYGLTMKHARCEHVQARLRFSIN
# [21] = AUC (0 to t) in ICR mouse at 1 mg/kg, iv measured upto 24 hrs by LC-MS analysis; format: ADME, organism-based; details: in vivo
# [22] = Bioavailability in Sprague-Dawley rat at 10 mg/kg, IG measured upto 24 hrs by LC-MS analysis; format: ADME, organism-based; details: in vivo, po
# [23] = Microsomal stability in rat liver microsomes assessed as intrinsic clearance pretreated with compound upto 60 mins followed by NADPH addition and measured after 60 mins by LC/MS analysis; format: ADME, Microsome; details: time < 120 min, read-out: CLH
# [24] = AUC (0 to t) in Sprague-Dawley rat at 10 mg/kg, IG measured upto 24 hrs by LC-MS analysis; format: ADME, organism-based; details: in vivo, po
# [25] = system: Enterococcus faecalis; assay: Antibacterial activity against linezolid-resistant Enterococcus faecalis assessed as inhibition of bacterial growth incubated for 16 to 20 hrs by CLSI based broth liquid microdilution method; format: functional; details: time 16-20 hrs
# [26] = Cytotoxicity against human HepG2 cells incubated for 48 hrs by MTT assay; format: toxicity, cell-based
# [27] = Microsomal stability in dog liver microsomes assessed as elimination half life pretreated with compound upto 60 mins followed by NADPH addition and measured after 60 mins by LC/MS analysis; format: ADME, Canis lupus familiaris, Microsome; details: time < 120 min; for half-life: liver microsomes, read-out: beta t1/2
# [28] = Microsomal stability in rat liver microsomes assessed as parent compound remaining pretreated with compound upto 60 mins followed by NADPH addition and measured after 60 mins by LC/MS analysis; format: ADME, Microsome; details: time < 120 min; for remaining at 2 h: liver microsomes, read-out: Stability
# [29] = Cmax in ICR mouse at 10 mg/kg, IG measured upto 24 hrs by LC-MS analysis; format: ADME, organism-based; details: in vivo, po
# [30] = Plasma protein binding in rat incubated for 6 hrs by LC-MS/MS analysis; format: ADME, cell-free; details: read-out: PPB (converted)
# [31] = Elimination half life in Sprague-Dawley rat at 10 mg/kg, IG measured upto 24 hrs by LC-MS analysis; format: ADME, organism-based; details: in vivo, po, read-out: beta t1/2 (converted)
# [32] = Stability in mouse plasma assessed as parent compound remaining at 37 degreeC measured upto 60 mins by HPLC analysis; format: ADME, cell-free; details: read-out: Stability
# [33] = Clearance in ICR mouse at 1 mg/kg, iv measured upto 24 hrs by LC-MS analysis; format: ADME, organism-based; details: in vivo
# [34] = Half life in ICR mouse at 10 mg/kg, IG measured upto 24 hrs by LC-MS analysis; format: ADME, organism-based; details: in vivo, po
SMILES,MIC [2],remaining at 2 h [3],solubility [4],MIC [8],fraction unbound at 6 h [9],remaining at 1 h [12],AUC(0-t) at 24 h [14],half-life [15],microsomal CLint [16],MIC [17],microsomal CLint [19],IC50 [20],bioavailability [22],microsomal CLint [23],AUC(0-t) at 24 h [24],MIC [25],IC50 at 48 h [26],fraction unbound at 6 h [30],half-life [31],remaining at 1 h [32],other results
O=C1O[C@@H](CO)CN1c1ccc(-c2ccc(/C=N/N3CCCCC3)nc2)c(F)c1,0.03 µg/mL,59%,58.4 µM,0.03 µg/mL,0.013,100%,1400 ng·h/mL,1.23 h,11.8 µL/min/mg,0.03 µg/mL,17.2 µL/min/mg,> 30 µM,51.1%,14.5 µL/min/mg,7170 ng·h/mL,0.5 µg/mL,> 30 µM,0.006,2.72 h,111%,"half-life [1]: 1.61 h; half-life [5]: 2.5 h; Vd [6]: 1.31 L/kg; beta t1/2 ([7]; microsomes, 2 h): 2 h; Tmax [10]: 2 h; AUC(0-t) at 24 h [11]: 4740 ng·h/mL; microsomal CLint [13]: 13.1 µL/min/mg; remaining at 2 h [18]: 75.2%; AUC(0-t) at 24 h [21]: 1190 ng·h/mL; half-life [27]: 1.78 h; remaining at 2 h [28]: 63.3%; Cmax [29]: 817 ng/mL; clearance [33]: 13.9 mL/min/kg"
O=C1O[C@@H](CO)CN1c1ccc(-c2ccc(/C=N/N3CCS(=O)(=O)CC3)nc2)c(F)c1,0.25 µg/mL,98.8%,72.2 µM,0.25 µg/mL,0.245,107%,1120 ng·h/mL,0.72 h,1.51 µL/min/mg,0.125 µg/mL,2.39 µL/min/mg,> 30 µM,19.8%,2.07 µL/min/mg,2120 ng·h/mL,0.5 µg/mL,> 30 µM,0.096,4.28 h,102%,"half-life [1]: 12.1 h; half-life [5]: 32.5 h; half-life [7]: 15.3 h; CLH ([13]; microsomes, 2 h): 0.804 µL/min/mg; remaining at 2 h [18]: 96%; beta t1/2 ([27]; microsomes, 2 h): 98.85 h; remaining at 2 h [28]: 92.8%"
CC(C)N/N=C/c1ccc(-c2ccc(N3C[C@H](CO)OC3=O)cc2F)cn1,0.06 µg/mL,66%,56.4 µM,0.03 µg/mL,0.048,108%,1580 ng·h/mL,0.98 h,5.78 µL/min/mg,0.03 µg/mL,13.7 µL/min/mg,> 30 µM,65.8%,12.6 µL/min/mg,10100 ng·h/mL,1 µg/mL,> 30 µM,0.018,1.94 h,80.2%,"beta t1/2 ([1]; microsomes, 1 h): 1.87 h; beta t1/2 ([5]; microsomes, 2 h): 1.26 h; Vd [6]: 0.42 L/kg; half-life [7]: 4.68 h; Tmax [10]: 0.25 h; AUC(0-t) at 24 h [11]: 613 ng·h/mL; microsomal CLint [13]: 8.78 µL/min/mg; Stability ([18]; microsomes, 2 h): 57.9%; AUC(0-t) at 24 h [21]: 475 ng·h/mL; half-life [34]: 3.3 h; half-life [27]: 3.37 h; Stability ([28]; microsomes, 2 h): 70.2%; Cmax [29]: 479 ng/mL; clearance [33]: 34.9 mL/min/kg"
